Test results reported in patent US20050042701A1, “Anti-petasin antibodies, methods for the production thereof and their use” (priority 1998, published 2005).
Read-outs that look alike come from different tables or passages of the source.

Experiment: 1st phase clinical test: pharmacokinetics of petasin in serum after single oral administration of tablets containing butterbur extract (open crossover; enzyme immunoassay)
Assay type: in vivo, human (clinically healthy men)
Conditions: for AUCRest: single oral, mean ± SD; for Petasin serum concentration Mean / concentration at 0 h: 0 h p.a.; for concentration at 0 h / concentration at 0.25 h / concentration at 0.5 h / concentration at 0.75 h / concentration at 1 h / concentration at 1.17 h / concentration at 1.5 h / concentration at 1.833 h / concentration at 2.167 h / concentration at 2.5 h / concentration at 3 h / concentration at 4 h / concentration at 5 h / concentration at 6 h / concentration at 8 h / concentration at 12 h / concentration at 24 h: male, human, serum, oral; for concentration at 0.25 h: 0.25 h p.a.; for concentration at 0.5 h: 0.5 h p.a.; for concentration at 0.75 h: 0.75 h p.a.; for concentration at 1 h: 1 h p.a.; for concentration at 1.17 h: 1.17 h p.a.; for concentration at 1.5 h: 1.5 h p.a.; for concentration at 1.833 h: 1.833 h p.a.; for concentration at 2.167 h: 2.167 h p.a.; for concentration at 2.5 h: 2.5 h p.a.; for concentration at 4 h: 4 h p.a.; for concentration at 5 h: 5 h p.a.; for concentration at 6 h: 6 h p.a.; for concentration at 8 h: 8 h p.a.; for concentration at 12 h: 12 h p.a.; for concentration at 24 h: 24 h p.a.
Description: Petasin ovalbumin is adsorptively bound to polystyrene microtitration plates in a concentration of […] in 0.1 M carbonate buffer, pH=9.5, (100 μl/well) for 16 hours at 4° C. and thereupon sucked off. After washing it two times with 300 μl/well washing buffer (PBS, 0.1% Tween 20) it is blocked for 2 hours at room temperature with 150 μl/well blocking solution (0.6% gelatine, 0.02% […] in PBS) and subsequently washed three times with washing buffer.
50 μl of the serum sample to be tested or the respective standard (1:4 dilution in a sample buffer (PBS, 1% BSA, 0.1% Tween 20, 0.01% thiomersal) and 50 μL of an optimized anti-serum dilution in a sample buffer are simultaneously incubated with shaking for 1 hour at room temperature. Subsequently, the microtitration plate is washed three times with 300 μl/well of washing buffer and incubated for 30 min. at room temperature with 100 μl of anti-rabbit immunoglobulin peroxidase conjugate, diluted in sample buffer, and once more washed as above. Thereupon, it is incubated for 10 min. with 100 μl of a substrate solution ready for use (3.3′, 5.5′-tetramethyl benzidine) per well and the reaction is stopped by adding 100 μl/well of 0.5 M sulfuric acid. The evaluation is carried out at 450 nm in a microtitration plate reader.
In a 1st phase of the clinical test for determining the pharmacokinetic parameters of tablets containing butterbur extract was a single oral administrations of 2 or 4 tablets to 24 clinically healthy men at the age between 18 and 40 years.
The open, crossover test was chosen as method, single administration of each dose in a randomized order with an interval of at least 7 days between the administrations.
Model-independent pharmacokinetic parameters for petasin Statistical methods:
ANOVA, ANOVAlog, Wilcoxon-Mann-Whitney test, Wilcoxon-sign order test

[1] = 2 tablets, after administering 2 tablets, read-out: Petasin serum concentration Max.
[2] = 2 tablets, after administering 2 tablets, read-out: Petasin serum concentration Mean
[3] = 2 tablets, after administering 2 tablets, read-out: Petasin serum concentration Min.
[4] = 2 tablets, after administering 2 tablets, read-out: Petasin serum concentration Median

C=C(C)C1CC2(C)C(=CC1=O)CCC(OC(=O)/C(C)=C\C)C2C (centres unmarked) [petasin]
AUCRest (2 tablets): 18.3 ± 7.9% | Dose dependence of Cmax and AUC (2 versus 4 tablets): nearly proportional to the dose | Medium maximum petasin concentration (Cmax) after double the dose (4 tablets versus 2 tablets): nearly doubled | Medium time of reaching the maximum serum level (tmax) after double the dose (4 tablets versus 2 tablets): remains constant | AUCRest (4 tablets): 10.8 ± 4.9% | Petasin serum concentration Mean (after administering 4 tablets): <1 ng/mL | Petasin serum concentration Mean (after administering 4 tablets, listed as Petasin): 0.0 ng/mL | Petasin serum concentration Max. (after administering 4 tablets, 3 h p.a.): 49.0 ng/mL | concentration at 0 h [1]: 0 ng/mL | concentration at 0 h [2]: 0 ng/mL | concentration at 0 h [3]: 0 ng/mL | concentration at 0.25 h [1]: 5.5 ng/mL | concentration at 0.25 h [2]: 2.8 ng/mL | concentration at 0.25 h [4]: 2.2 ng/mL | concentration at 0.25 h [3]: 1.1 ng/mL | concentration at 0.5 h [1]: 23.3 ng/mL | concentration at 0.5 h [2]: 7.6 ng/mL | concentration at 0.5 h [4]: 5.9 ng/mL | concentration at 0.5 h [3]: 1.5 ng/mL | concentration at 0.75 h [1]: 23.8 ng/mL | concentration at 0.75 h [2]: 11.9 ng/mL | concentration at 0.75 h [4]: 11 ng/mL | concentration at 0.75 h [3]: 4 ng/mL | concentration at 1 h [1]: 29.3 ng/mL | concentration at 1 h [2]: 15.6 ng/mL | concentration at 1 h [4]: 14.7 ng/mL | concentration at 1 h [3]: 4 ng/mL | concentration at 1.17 h [1]: 62.9 ng/mL | concentration at 1.17 h [2]: 21 ng/mL | concentration at 1.17 h [4]: 15.3 ng/mL | concentration at 1.17 h [3]: 5.6 ng/mL | concentration at 1.5 h [1]: 47.3 ng/mL | concentration at 1.5 h [2]: 19.3 ng/mL | concentration at 1.5 h [4]: 16.1 ng/mL | concentration at 1.5 h [3]: 5.1 ng/mL | concentration at 1.833 h [1]: 44.3 ng/mL | concentration at 1.833 h [2]: 18.2 ng/mL | concentration at 1.833 h [4]: 14.7 ng/mL | concentration at 1.833 h [3]: 7.8 ng/mL | concentration at 2.167 h [1]: 31.7 ng/mL | concentration at 2.167 h [2]: 16.3 ng/mL | concentration at 2.167 h [4]: 14.5 ng/mL | concentration at 2.167 h [3]: 7.3 ng/mL | concentration at 2.5 h [1]: 26.6 ng/mL | concentration at 2.5 h [2]: 13.6 ng/mL | concentration at 2.5 h [4]: 10.2 ng/mL | concentration at 2.5 h [3]: 5.9 ng/mL | concentration at 3 h (2 tablets, after administering 2 tablets, 3 h p.a., read-out: Petasin serum concentration Max.): 18.3 ng/mL | concentration at 3 h (2 tablets, after administering 2 tablets, 3 h p.a., read-out: Petasin serum concentration Mean): 8.8 ng/mL | concentration at 3 h (2 tablets, after administering 2 tablets, 3 h p.a., read-out: Petasin serum concentration Median): 7.7 ng/mL | concentration at 3 h (2 tablets, after administering 2 tablets, 3 h p.a., read-out: Petasin serum concentration Min.): 3.1 ng/mL | concentration at 4 h [1]: 11.2 ng/mL | concentration at 4 h [2]: 4.5 ng/mL | concentration at 4 h [4]: 5.2 ng/mL | concentration at 4 h [3]: 1.7 ng/mL | concentration at 5 h [1]: 8.8 ng/mL | concentration at 5 h [2]: 4.1 ng/mL | concentration at 5 h [4]: 3.4 ng/mL | concentration at 5 h [3]: 1.5 ng/mL | concentration at 6 h [1]: 8.1 ng/mL | concentration at 6 h [2]: 3.2 ng/mL | concentration at 6 h [4]: 3.1 ng/mL | concentration at 6 h [3]: 1.2 ng/mL | concentration at 8 h [1]: 4.2 ng/mL | concentration at 8 h [2]: 1.9 ng/mL | concentration at 8 h [4]: 1.6 ng/mL | concentration at 8 h [3]: 1 ng/mL | concentration at 12 h [1]: 2.9 ng/mL | concentration at 12 h [2]: 1.6 ng/mL | concentration at 12 h [4]: 1.4 ng/mL | concentration at 12 h [3]: 1.1 ng/mL | concentration at 24 h [1]: 2.3 ng/mL | concentration at 24 h [2]: 1.5 ng/mL | concentration at 24 h [4]: 1.3 ng/mL | concentration at 24 h [3]: 1.1 ng/mL | concentration at 0 h (4 tablets, after administering 4 tablets, read-out: Petasin serum concentration Max.): 0 ng/mL | concentration at 0 h (4 tablets, after administering 4 tablets, read-out: Petasin serum concentration Median): < 1 ng/mL
